Reference: patent publication US20060135587A1, “Method and compounds for promoting healing and reducing inflammation” (priority 2002, published 2006)
Read-outs that look alike come from different tables or passages of the source. Marks after values point to notes of the source that are not given here.

Columns and labels:
[1] = test system: liver after partial hepatectomy; assay: Morphological study of the liver after partial hepatectomy; type: in vivo, rats; conditions: one week after hepatectomy
Experimental: Morphological methods are highly informative in the assessment of repair processes. Histological tests of the liver after partial hepatectomy were performed using generally accepted methods. Microscopic sections were stained with hematoxylin and eosin using Van Gieson's methodology. Liver tests after partial hepatectomy were performed on 8 groups of animals, totalling 37 rats. All animals were examined one week after hepatectomy.

[2] = test system: white male mice
Experimental: The acute toxicity of 1,3-dialkyl-4,5-bis (N-methylcarbamoyl)imidazolium salts was assessed following intraperitoneal injection into 200 white male mice weighing 18 to 20 g. Dead animals were counted daily after the administration of the test substance.

[3] = test system: aseptic full-thickness skin wounds; assay: Healing of aseptic full-thickness skin wounds in rats, topical treatment; type: in vivo
Description: To heal successfully, wounds should be treated with regard to specific features of the various stages of healing process of the wound (Kuzin et al, 1981). The wound-healing effect of salts of N-substituted 1,3-dialkyl-4,5-bis(carbamoyl)imidazolium derivatives was studied in a model of aseptic full-thickness skin wounds in rats (Zapadnyuk et al, 1983). The effect of 10% 1-ethyl-3-methyl-4,5-bis(N-methylcarbamoyl)imidazolium benzensulfonate in a lanolin ointment base was compared to that of Solcoseryl gel and Spasatel balm.
Aseptic full-thickness skin wounds were created in rats under light ether anaesthesia. At a site on the animal's back where the animal could not lick the wound, the skin was shaved, and a circular piece of skin approximately 2.5 cm^2 area was excised with scissors. Following recovery from anaesthesia the animals were kept in separate cages, with normal food and water ad libitum. A total of 100 rats weighing from 200 to 250 g were used, with 20 rats in each group. The groups were as follows:
Treatment was performed 24 hours after the wounding by applying […] once a day in a proportion of 80 mg of ointment per 1 cm^2 of the wound area (8 mg of substance per 1 cm^2) and then daily until healing was complete.
Animals were examined at 5, 10, 15 and 20 days for the following parameters; wound size and wound healing time; weight gain, peripheral blood indicators (total leucocyte count, differential leucocyte count, and erythrocyte sedimentation rate); and biochemical serum indicators (total protein, albumin, globulin, and globulin fractions); and macroscopic and microscopic assessment of wounds. The average complete wound healing period was 16.8±1.9 days for Compound 2, compared to 23.5±2.2 days for Spasatel and 24.0±2.4 days for Solcoseryl.
For measurement of wound size, a sterile object plate was laid over the wound, and its contour was outlined with a marker. The wounds were photographed, the wound outlines were scanned, and their area was calculated using an in-house computer program.

[4] = test system: full-thickness skin wounds; assay: Morphological assessment of the wound healing stages; type: in vivo, rats; conditions: Day 15
Description: An important indicator of wound healing is the morphology and epithelialization of the wound surface (Sarkisov et al, 1981). Samples were taken from experimental animals on the fifth, tenth and fifteenth days of the study described in Example 13, which roughly correspond to the three wound healing stages: the first traumatic inflammation stage is complete by the fifth day, the granulation tissue development stage is complete by the tenth day, and cicatrisation and epithelialization take place from the fifteenth to twentieth days. The results are illustrated in FIG. 1.
A comparative assessment of the healing of a full-thickness wound was performed on the basis of a set of morphological indicators characterising the regeneration process: […]

[5] = test system: wounds; assay: Treatment of wounds in human patients; type: in vivo
Experimental: The effect of Compound 2 on the healing of different types of wounds was tested in human patients. A powder, solution or ointment of the substance containing the active agent in a proportion of 5% to 95% was applied to the wound. In all cases the wounds healed rapidly without infection or scarring.

[6] = Rat peripheral blood indicators during full-thickness skin wound treatment; type: in vivo, rats
Experimental: Peripheral blood indicators (leucocytes, leucocyte formula, erythrocyte sedimentation rate) of the rats from the test and control groups were measured before the animals were wounded, and then checked on the fifth, tenth and fifteenth days of the experiment. No reproducible changes compared to the blood characteristics of the intact animals prior to wounding were identified from the haematological indicators of rats treated with Compound 2.

[7] = test system: cryogenic injuries of the sigmoid colon; assay: Cryogenic damage of the colon, model of ulcerative colitis; type: in vivo, rats; conditions: day 7
Experimental: A model of cryogenic damage of the colon was used in this experiment to simulate ulcerative colitis. Cryogenic injuries of the sigmoid colon of rats were induced by pressing a metal rod of […] in diameter cooled in liquid nitrogen to the serous membrane of the colon for 10 seconds under ether anaesthesia.
Tests were performed on 67 male rats weighing 180-200 g, with 8 animals in each group. Animals were kept in separate cages, with normal food and water ad libitum. The test compounds were administered orally on the second day after the operation, and then daily until healing was complete. Compound 2 or Compound 6 was administered to test animals at a dose of 20-50 mg/kg. The following agents were used for comparison:
The nature of the healing of the ulcer injury was examined morphologically on days 1, 3 and 7. […] The inflammatory process extends beyond the injured area into the adjacent areas, and beyond the peritoneum into fatty connective tissue.

[8] = test system: guinea pigs; assay: Acute toxicity (LD50) in guinea pigs; type: in vivo; conditions: oral administration
Description: It is contemplated that in clinical use, treatment using oral tablets will take two to three weeks, with each patient receiving three tablets containing 0.6 g active compound per day.

## CC[n+]1cn(C)c(C(=O)NC)c1C(=O)NC.O=S(=O)([O-])c1ccccc1 [Compound 2, 1-methyl-3-ethyl-4,5-bis(N-methylcarbamoyl)-imidazolium benzenesulfonate]
[1]; 0.1 MM/kg
  histological findings in the liver: showed no undesirable effects
[1]; 0.2 MM/kg
  histological findings in the liver: some of the animals demonstrated hepatocyte hypertrophy combined with subacute hepatitis
[2]; intraperitoneal injection, white male mice, 14 days observation
  LD50: 764 mg/kg
[2]; mice, given intraperitoneally, text b404
  LD50: 1920 mg/kg
[3]; 5th day, topical, test compound as 10% ointment
  Wound area (% of area before treatment): 84.0%
[3]; 10% Compound 2 ointment
  wound area on the fifteenth day: 0.4%
[3]; 10th day, topical, test compound as 10% ointment
  Wound area (% of area before treatment): 8.1%
[3]; 15th day, topical, test compound as 10% ointment
  Wound area (% of area before treatment): 0.4%
[3]; 20th day, topical, test compound as 10% ointment
  Wound area (% of area before treatment): 0.1%
[3]; Table 8, topical once a day, Compound 2 as 10% ointment in lanolin
  Epithelialization (duration in days): 16.8 ± 1.9*^.** days
[3]; Table 10, topical, test compound as 10% ointment
  Epithelialization period: 16.8 ± 1.9
[3]; text b167
  average complete wound healing period: 16.8 ± 1.9 days
[4]
  animals showing complete epithelialization of the wound: 60%
  animals showing incomplete epithelialization: 40%
[5]; Patient A, incisional wound 5 cm, 10% ointment in lanolin daily for 5 days, at 17 days
  wound outcome: there was no scar, and the skin had fully recovered
[5]; Patient B, bed sores on the thigh, 0.5 g finely dispersed powder daily for 5 days, at 16 days
  wound outcome: there was no scar, and the skin had fully recovered
[5]; Patient C, second degree thermal burn, 10% sterile aqueous solution, at 16 days
  wound outcome: complete recovery of the skin, without scars
[5]; Patient D, abrasion of the left leg, 0.5 g powder mixed with equal amount of talc, at 12 days
  wound outcome: the skin had healed completely
[5]; Patient E, erosion of the uterine cervix, 10% ointment on a tampon daily for two weeks, colposcopy at 18 days
  wound outcome: the epithelium of the mucous membrane of the uterine cervix had fully recovered
[6]; day 5
  ESR mm/h: 2.2 ± 0.6 mm/h
  Leucocyte count (%) Band neutrophils: 1.4 ± 0.4%
  Leucocyte count (%) Segmented neutrophils: 35.2 ± 4.4%
  Leucocyte count (%) basophils: 0%
  Leucocyte count (%) eosinophils: 2.6 ± 0.6%
  Leucocyte count (%) lymphocytes: 52.6 ± 4.5%
  Leucocyte count (%) monocytes: 8.2 ± 0.8%
  Leucocytes 10^9/l: 6.6 ± 0.9 10^9/l
[6]; day 10
  ESR mm/h: 1.0 ± 0 mm/h
  Leucocyte count (%) Band neutrophils: 1.2 ± 0.2%
  Leucocyte count (%) Segmented neutrophils: 29.6 ± 2.2%
  Leucocyte count (%) basophils: 0.6 ± 0.2%
  Leucocyte count (%) eosinophils: 2.4 ± 0.5%
  Leucocyte count (%) lymphocytes: 63.8 ± 1.9%
  Leucocyte count (%) monocytes: 2.4 ± 0.5%
  Leucocytes 10^9/l: 7.9 ± 0.6 10^9/l
[6]; day 15
  European Search Report mm/h: 1.4 ± 0.2 mm/h
  Leucocyte count (%) Band neutrophils: 1.2 ± 0.2%
  Leucocyte count (%) Segmented neutrophils: 21.0 ± 3.1%
  Leucocyte count (%) basophils: 0.4 ± 0.2%
  Leucocyte count (%) eosinophils: 2.8 ± 0.2%
  Leucocyte count (%) lymphocytes: 70.6 ± 3.4%
  Leucocyte count (%) monocytes: 4.0 ± 0.7%
  Leucocytes 10^9/1: 11.1 ± 1.6 10^9/1
[7]; 20 mg/kg orally
  cases with complete synchronous regeneration: 100%
[7]; 50 mg/kg
  animals with reduction of the wound area: 67%
[8]
  LD50: more than 20000 mg/kg
